Results taken from US20050267133A1, “Pyrazolopyrimidines as kinase inhibitors” (priority 2002, published 2005).

Key:
GSK-3β = GSK-3β (Homo sapiens, UniProt P49841); assay: GSK3 scintillation proximity assay (SPA) kinase assay; format: biochemical; settings: 20 nM kinase, 2.5 uM ATP, biotinylated glycogen synthase peptide, 40 minutes at room temperature; -log IC50 in Molar; read-out: GSK-3 pIC50 (converted)
Text: The phosphorylated biotinylated peptide is then captured onto streptavidin coated scintillation proximity assay (SPA) beads from Amersham Technology, where the signal from the ^33P is amplified via the scintillant contained in the beads.
GSK-3β is commercially available or may be cloned and expressed in E. coli using standard techniques to produce soluble, active protein. The production of active protein involves purification in two steps using Metal Chelate and Ion Exchange Chromatography. Protein eluting from Ion Exchange provides >90% pure product that may then be concentrated for use in high throughput screening.
The kinase was assayed at a concentration of 20 nM final in 100 mM HEPES, pH 7.2 containing 10 mM magnesium chloride, 0.1 mg/mL bovine serum albumin, 1 mM dithiothreitol, 0.3 mg/mL heparin, 2.8 uM peptide substrate, 2.5 uM ATP, and 0.2 uCi/well [[…]-^33P]-ATP. After 40 minutes incubation at room temperature, the reaction was stopped by addition of 100 mM EDTA and […] in 100 mM HEPES, pH7.2 followed by an additional solution of diluted Streptavidin coated SPA beads in PBS, pH 7.2 to give a final concentration of 0.25 mg of beads per assay well in a 96-well microtiter plate.
10 mM stock solutions of the compounds of the invention in 100% DMSO are generated as a first step in the screening process. The second step involves the creation of dose response plates where these compounds are diluted 10-fold in 100% DMSO to 1 mM concentrations and subsequently serially diluted 3-fold in 100% DMSO across the plate by automated liquid handling such that the final top concentration of inhibitor is 0.033 mM in the 30 uL kinase assay. The third step involves the creation of the assay plates. This is achieved by transferring 1 uL of the compounds to assay plates by automated liquid handling. The fourth step is to perform the assay as described and count the resulting plates in the Packard TopCount NXT microplate scintillation and luminescence counter.
The final step is data acquisition and analysis where IC50 values are generated for each compound by normalizing curve data to the equation 100*(U1−C2)/(C1−C2) (where U1 is the cpm value, C2 is the background, and C1 is the maximum number of counts), then fitting the normalized data to the equation y=Vmax*(1−(x/(K+x))). The IC50 values were converted to pIC50 values, i.e., −log IC50 in Molar concentration. The data is expressed below in Table 1.

[1] = biological target: T1, GST-TIE2 (intracellular domains of human TIE2) (Homo sapiens, UniProt Q02763); assay: TIE-2 Enzyme Assay (TIE2-E), LANCE method; format: biochemical; settings: preactivated GST-TIE2, 1 μM D1-15 peptide, 80 uM ATP, 30 mins at room temperature; pIC50 = -log IC50 in Molar
T1 construct: made in house
T1 sequence (Q02763 762-1104): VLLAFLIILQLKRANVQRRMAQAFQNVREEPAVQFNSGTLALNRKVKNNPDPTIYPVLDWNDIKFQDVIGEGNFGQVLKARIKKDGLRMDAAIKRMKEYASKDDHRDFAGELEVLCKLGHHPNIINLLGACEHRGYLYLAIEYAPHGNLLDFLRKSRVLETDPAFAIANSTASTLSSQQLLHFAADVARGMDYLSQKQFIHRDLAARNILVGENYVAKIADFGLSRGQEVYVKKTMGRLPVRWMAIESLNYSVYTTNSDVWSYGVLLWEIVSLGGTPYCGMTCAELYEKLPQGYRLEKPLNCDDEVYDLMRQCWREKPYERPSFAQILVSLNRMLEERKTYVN
Text: The TIE-2 enzyme assay used the LANCE method (Wallac) and GST-TIE2, baculovirus expressed recombinant constructs of the intracellular domains of human TIE2 (amino acids 762-1104, GenBank Accession # L06139) tagged by GST). The method measured the ability of the purified enzymes to catalyse the transfer of the γ-phosphate from ATP onto tyrosine residues in a biotinylated synthetic peptide, D1-15 (biotin-C6-LEARLVAYEGWVAGKKKamide). This peptide phosphorylation was detected using the following procedure: for enzyme preactivation, GST-TIE2 was incubated for 30 mins at room temperature with 2 mM ATP, 5 mM MgCl2 and 12.5 mM DTT in 22.5 mM HEPES buffer (pH7.4). Preactivated GST-TIE2 was incubated for 30 mins at room temperature in 96 well plates with 1 μM D1-15 peptide, 80 uM ATP, 10 mM MgCl2, 0.1 mg/ml BSA and the test compound (diluted from a 10 mM stock in DMSO, final DMSO concentration was 2.4%) in 1 mM HEPES (pH7.4). The reaction was stopped by the addition of EDTA (final concentration 45 mM). Streptavidin linked-APC (allophycocyanin, Molecular Probe) and Europium-labeled anti-phosphorylated tyrosine antibody (Wallac) were then added at the final concentration of 17 μg/well and 2.1 μg/well, respectively. The APC signal was measured using an ARVO multilabel counter. (Wallac Berthold Japan). The percent inhibition of activity was calculated relative to blank control wells.
The concentration of test compound that inhibits 50% of activity (IC50) was interpolated using nonlinear regression (Levernberg-Marquardt) and the equation, y=Vmax (1−x/(K+x))+Y2, where “K” was equal to the IC50. The IC50 values were converted to pIC50 values, i.e., −log IC50 in Molar concentration.
Test compounds are employed in free or salt form.

Sequence of GSK-3β (P49841 whole entry, species assumed): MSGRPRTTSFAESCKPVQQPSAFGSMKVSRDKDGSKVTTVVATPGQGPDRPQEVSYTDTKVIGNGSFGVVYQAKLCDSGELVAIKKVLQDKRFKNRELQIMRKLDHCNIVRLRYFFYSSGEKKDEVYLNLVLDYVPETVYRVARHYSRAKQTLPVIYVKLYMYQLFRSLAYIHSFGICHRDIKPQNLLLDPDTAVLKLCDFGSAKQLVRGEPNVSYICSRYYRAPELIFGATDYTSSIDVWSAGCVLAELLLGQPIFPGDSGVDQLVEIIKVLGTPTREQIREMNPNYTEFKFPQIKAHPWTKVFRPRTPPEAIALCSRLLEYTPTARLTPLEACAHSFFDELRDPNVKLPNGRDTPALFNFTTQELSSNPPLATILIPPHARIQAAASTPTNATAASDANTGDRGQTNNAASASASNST

| Compound | IC50 (GSK-3β) | IC50 [1] |
| --- | --- | --- |
| Oc1cccc(/C=N/Nc2ncnc3c2cnn3-c2ccccc2)c1 [Example 6, 3-Hydroxybenzaldehyde (1-phenyl-1H-pyrazolo[3,4-d]pyrimidin-4-yl)hydrazone] | 100 to 1000 nM | 1000 to 10000 nM |
| COc1ccc(/C=N/Nc2ncnc3c2cnn3-c2ccccc2)cc1O [Example 45, 3-Hydroxy-4-methoxybenzaldehyde (1-phenyl-1H-pyrazolo[3,4-d]pyrimidin-4-yl)hydrazone] | 100 to 1000 nM | 100 to 1000 nM |
| COCCN1CCN(C(=O)c2ccc(/C=N/Nc3ncnc4c3cnn4-c3ccccc3)cc2)CC1 [Example 36, 4-{[4-(2-methoxyethyl)piperazin-1-yl]carbonyl}benzaldehyde (1-phenyl-1H-pyrazolo[3,4-d]pyrimidin-4-yl)hydrazone] | 100 to 1000 nM | 100 to 1000 nM |
| O=C(O)c1ccc(/C=N/Nc2ncnc3c2cnn3-c2ccccc2)cc1 [Example 24, 4-{(E)-[(1-phenyl-1H-pyrazolo[3,4-d]pyrimidin-4-yl)hydrazono]methyl}benzoic Acid] | 100 to 1000 nM | 100 to 1000 nM |
| COc1cc(/C=N/Nc2ncnc3c2cnn3-c2ccccc2)cc(Br)c1O [Example 48, 3-Bromo-4-hydroxy-3-methoxybenzaldehyde (1-phenyl-1H-pyrazolo[3,4-d]pyrimidin-4-yl)hydrazone] | 100 to 1000 nM | 100 to 1000 nM |

The remaining lines, values ahead:

| IC50 (GSK-3β) | IC50 [1] | Compound |
| --- | --- | --- |
| 100 to 1000 nM | 100 to 1000 nM | CCN(CC)CCOc1ccc(/C=N/Nc2ncnc3c2cnn3-c2ccccc2)cc1 [Example 60, 4-(2-(Diethylamino)-ethoxy)-benzaldehyde [1-(phenyl)-1H-pyrazolo[3,4-d]pyrimidin-4-yl]hydrazone] |
| < 100 nM | 100 to 1000 nM | CN(C)CCNC(=O)c1ccc(/C=N/Nc2ncnc3c2cnn3-c2ccccc2)cc1 [Example 25, N-[2-(dimethylamino)ethyl]-4-{(E)-[(1-phenyl-1H-pyrazolo[3,4-d]pyrimidin-4-yl)hydrazono]methyl}benzamide] |
| 1000 to 10000 nM | 100 to 1000 nM | CCOc1cc(/C=N/Nc2ncnc3c2cnn3-c2ccccc2)cc(Br)c1O [Example 46, 3-Bromo-4-hydroxy-3-ethoxybenzaldehyde (1-phenyl-1H-pyrazolo[3,4-d]pyrimidin-4-yl)hydrazone] |
| 100 to 1000 nM | 100 to 1000 nM | COc1ccc(/C=N/Nc2ncnc3c2cnn3-c2ccccc2)cc1OC [Example 56, 3,4-Dimethoxybenzaldehyde [1-(phenyl)-1H-pyrazolo[3,4-d]pyrimidin-4-yl]hydrazone] |
| 100 to 1000 nM | 100 to 1000 nM | CN1CCN(CCCNC(=O)c2ccc(/C=N/Nc3ncnc4c3cnn4-c3ccccc3)cc2)CC1 [Example 37, N[3-(4-Methylpiperazin-1-yl)propyl]-4-{(E)-[(1-phenyl-1H-pyrazolo[3,4-d]pyrimidin-4-yl)hydrazono]methyl}benzamide] |
